Measured values taken from US5789377A (priority 1995, dated 1998).
Like-named read-outs stand apart in the source and are kept apart here.

Tests used:
Type in all cases: cell-based
RAW cells = test: RAW cell viability by Trypan blue exclusion; details: up to 50 μg peptide
S. aureus = details: fragments of CEMA
Method: (§1) The minimum inhibitory concentrations (MIC) of CEME, CEMA and melittin were determined for a number of different bacteria (Table 2). Briefly, cells were grown overnight at 37° C. in LB-S (Luria broth without any salt supplement) and diluted one in 10,000 in the same medium to give concentrations of about 10^4 to 10^5 CFU/ml. The broth dilutions were set up in a 96 well microtiter plate by putting 200 μl of LB-S containing the initial concentration of antibiotic or compound in column 1 and 100 μl of the same medium in columns 2-12. The compounds were diluted by taking 100 μl of broth from column 1 and mixing it with column 2, resulting in a one in two dilution. This was continued to column 10. Finally, 10 μl of bacteria were pipetted into columns 1-11, and the plates incubated overnight at 37° C. The next day the plates were scored for growth in the wells, and the MIC determined.

P. aeruginosa = details: fragments of CEMA
Method: as §1

E. coli = test system: E. coli
Method: as §1

Candida albicans = test: MIC broth dilution; details: fragments of CEMA
Method: as §1
Consequently, although CEMA is an effective antimicrobial agent, the individual fragments have no antimicrobial (or anti-fungal) activity.

E. coli strain DC2 = test: gel overlay antibacterial activity assay; details: gel overlaid with ≈10^5 E. coli strain DC2, overnight at 37° C.
Method: A sample of the partially purified CEME protein was electrophoresed on a 15% acid-urea gel, which separates proteins based on charge and mass (Panyim and Chalkey, Arch. Biochem. Biophys., 130:337, 1969). The pH of the buffer is acidic (=pH 5.0) and the polarity is reversed such that proteins migrate to the cathode. Therefore, the small cationic peptides run relatively quickly through the gel and thus can be easily identified. Antibacterial activity was tested as previously described (Hultmark, Eur. J. Biochem., 106:7, 1980). The gel was incubated in Mueller Hinton broth+0.2M NaPO4 pH 7.4 for 1 hr. It was overlaid with 5 mls of the same media containing 0.6% agar and ≈10^5 E. coli strain DC2, and then again with 5 ml of the same media containing only 0.6% agar. […] Melittin is used as a positive control due to its antibacterial activity and similarity in size and PI values.

P. AERUGINOSA H309 [1] = test: lysozyme lysis assay (membrane permeabilization); details: 50 μg/ml lysozyme, decrease in OD600, FIG. 5
Method: Membrane permeabilization by polycationic compounds was measured in two different assays. The first assay measured membrane disruption by the ability of lysozyme to reach the periplasm and cause cell lysis. […] The uptake of lysozyme into whole cells due to membrane permeabilization by various compounds was previously described in Hancock, et al., Antimicrobial Agents and Chemo., 19:777, 1981. Overnight cultures of P. aeruginosa H309 or E. cloacae 218R1 grown in LB-S were diluted 1 in 50 in fresh medium and grown to an OD600 =0.5-0.6. The cells were harvested in a Silencer H-103N clinical centrifuge at 1800 g for 10 min, washed once with one volume of assay buffer (5 mM HEPES pH 7.2, 5 mM KCN), and resuspended in the same buffer to an OD600 of 0.5. Assays consisted of 600 μl of cells with 50 μg/ml of chicken egg white lysozyme and varying concentrations of cationic compounds. Cell lysis was measured as a decrease in the OD600 in a Perkin-Elmer dual beam spectrophotometer. Parallel experiments performed without lysozyme enabled the measurement of the lytic activity of the compounds themselves. To test whether or not permeability to lysozyme could be inhibited by divalent cations, various concentrations of MgCl2 were added to the assay after the addition of lysozyme and before the addition of the test compound.

P. AERUGINOSA H309 [2] = test: 1-N-phenylnaphthylamine (NPN) uptake assay; details: 10 μM NPN, fluorescence, FIG. 7
Text: (§2) The second assay determined membrane permeability by the ability of 1-N-phenylnaphthylamine (NPN), a small fluorescent probe, to insert itself into the membrane. Normally, very little NPN can penetrate the outer membrane, but in the presence of a membrane permeabilizer it can insert into the hydrophobic membrane resulting in an increase in fluorescence (FIGS. 7 and 8). This N-phenylnaphthylamine uptake assay was previously described by Loh, et al., Antimicrobial Agents and Chemo., 26:546, 1984. Cells were prepared exactly the same as for the lysozyme lysis assay. 1-N-phenylnaphthylamine (NPN) was dissolved in acetone at a concentration of 500 μM. NPN fluorescence was measured in a Perkin-Elmer 650-10S fluorescent spectrophotometer using excitation and emission wavelengths set to 350 nm and 420 nm respectively, with slit widths of 5 nm. The assay was standardized by adding 20 μl of NPN (final concentration of 10 μM) and 10 μl of 0.64 mg/ml of polymyxin B (final concentration of 6.4 μg/ml) into 1 ml of cells, and adjusting the resulting fluorescence to read 90% deflection (90 arbitrary units). Various compounds were tested by adding 10 μl of different concentrations to a cuvette containing 1 ml of cells and 10 μM NPN. Permeabilizing activity was designated as the total fluorescence minus the fluorescence due to NPN alone. Following the fluorescence measurement, the OD600 of the cells was taken to ensure no significant cell lysis had occurred.

S. typhimurium = test system: S. typhimurium
Method: as §1

E. cloacae = details: strain 218R1, β-lactam resistant
Method: as §1

E. cloacae 218R1 = test: 1-N-phenylnaphthylamine (NPN) uptake assay; details: 10 μM NPN, fluorescence, FIG. 8
Text: as §2

[3] = strain C590, Defensin sensitive
[4] = strain DC2, Polymyxin sensitive
[5] = strain SC9251, Parent of SC9252
[6] = strain SC9252, Polymyxin resistant

| Compound | opening up the membrane to NPN (P. AERUGINOSA H309 [2]) | MIC (S. typhimurium; strain C587, Parent of C590) | MIC (S. typhimurium; [3]) | MIC (E. cloacae) | MIC (E. coli; [4]) | MIC (E. coli; [5]) | MIC (E. coli; [6]) | also measured |
| --- | --- | --- | --- | --- | --- | --- | --- | --- |
| CC[C@H](C)[C@H](NC(=O)CNC(=O)[C@@H](NC(=O)[C@H](CCCCN)NC(=O)[C@H](CCCCN)NC(=O)[C@H](Cc1ccccc1)NC(=O)[C@H](CC(C)C)NC(=O)[C@H](CCCCN)NC(=O)[C@H](Cc1c[nH]c2ccccc12)NC(=O)[C@@H](N)CCCCN)[C@@H](C)CC)C(=O)NCC(=O)N[C@@H](C)C(=O)N[C@H](C(=O)N[C@@H](CC(C)C)C(=O)N[C@@H](CCCCN)C(=O)N[C@H](C(=O)N[C@@H](CC(C)C)C(=O)N[C@H](C(=O)N[C@H](C(=O)NCC(=O)N[C@@H](CC(C)C)C(=O)N1CCC[C@H]1C(=O)N[C@@H](C)C(=O)N[C@@H](CC(C)C)C(=O)N[C@@H](CCCCN)C(=O)N[C@@H](CC(C)C)C(=O)N[C@H](C(=O)N[C@@H](CCCCN)C(=O)O)[C@@H](C)O)[C@@H](C)O)[C@@H](C)O)C(C)C)C(C)C [CEMA] | – | – | – | – | – | – | – | RAW cell viability (RAW cells): no apparent decrease |
| CC[C@H](C)[C@H](NC(=O)CN)C(=O)NCC(=O)N[C@@H](C)C(=O)N[C@H](C(=O)N[C@@H](CC(C)C)C(=O)N[C@@H](CCCCN)C(=O)N[C@H](C(=O)N[C@@H](CC(C)C)C(=O)N[C@H](C(=O)N[C@H](C(=O)NCC(=O)N[C@@H](CC(C)C)C(=O)N1CCC[C@H]1C(=O)N[C@@H](C)C(=O)N[C@@H](CC(C)C)C(=O)N[C@@H](CCCCN)C(=O)N[C@@H](CC(C)C)C(=O)N[C@H](C(=O)N[C@@H](CCCCN)C(=O)O)[C@@H](C)O)[C@@H](C)O)[C@@H](C)O)C(C)C)C(C)C [MA] | – | – | – | – | – | – | – | MIC (S. aureus): greater than 64 ug/ml; MIC (P. aeruginosa): greater than 64 ug/ml; MIC (E. coli; E. coli, fragments of CEMA): greater than 64 ug/ml; MIC (Candida albicans): greater than 64 ug/ml |
| CC[C@H](C)[C@H](NC(=O)CN)C(=O)NCC(=O)N[C@@H](C)C(=O)N[C@H](C(=O)N[C@@H](CC(C)C)C(=O)N[C@@H](CCCCN)C(=O)N[C@H](C(=O)N[C@@H](CC(C)C)C(=O)N[C@H](C(=O)N[C@H](C(=O)NCC(=O)N[C@@H](CC(C)C)C(=O)N1CCC[C@H]1C(=O)N[C@@H](C)C(=O)N[C@@H](CC(C)C)C(=O)N[C@H](C(=O)N[C@@H](CO)C(=O)N[C@@H](Cc1c[nH]c2ccccc12)C(=O)N[C@H](C(=O)N[C@@H](CCCCN)C(=O)N[C@@H](CCCNC(=N)N)C(=O)N[C@@H](CCCCN)C(=O)N[C@@H](CCCNC(=N)N)C(=O)N[C@@H](CCC(N)=O)C(=O)N[C@@H](CCC(N)=O)C(N)=O)[C@@H](C)CC)[C@@H](C)CC)[C@@H](C)O)[C@@H](C)O)C(C)C)C(C)C [MEL, melittin] | less active | – | – | – | – | – | – | zones of clearing on overlaid acid-urea gel (E. coli strain DC2): zones of clearing; permeabilization of outer membrane to lysozyme (P. AERUGINOSA H309 [1]): did not appear to be a good permeabilizer as compared to the other peptides |
| gentamicin [GM] | – | 4 µg/mL | 2 µg/mL | 0.5 µg/mL | 0.5 µg/mL | 2 µg/mL | 4 µg/mL | – |
| polymyxin B [PX] | equally active | 1 µg/mL | 0.25 µg/mL | 0.5 µg/mL | 0.06 µg/mL | 0.06 µg/mL | 4 µg/mL | opening up the membrane to NPN (E. cloacae 218R1): equally active |
